The values that follow come from patent US8124645B2, “LPA receptor antagonist” (Ono Pharmaceutical Co., Ltd., priority 2002, dated 2012).

The structures appear in SMILES notation.

The IC50 is the concentration at which inhibition is half-maximal.

The target in this test is T1, human EDG-2 (Homo sapiens, UniProt Q92633).
T1 construct: expressed in transfected cells; host or cells: Chinese hamster ovary (CHO) cells
T1 sequence (Q92633 whole entry): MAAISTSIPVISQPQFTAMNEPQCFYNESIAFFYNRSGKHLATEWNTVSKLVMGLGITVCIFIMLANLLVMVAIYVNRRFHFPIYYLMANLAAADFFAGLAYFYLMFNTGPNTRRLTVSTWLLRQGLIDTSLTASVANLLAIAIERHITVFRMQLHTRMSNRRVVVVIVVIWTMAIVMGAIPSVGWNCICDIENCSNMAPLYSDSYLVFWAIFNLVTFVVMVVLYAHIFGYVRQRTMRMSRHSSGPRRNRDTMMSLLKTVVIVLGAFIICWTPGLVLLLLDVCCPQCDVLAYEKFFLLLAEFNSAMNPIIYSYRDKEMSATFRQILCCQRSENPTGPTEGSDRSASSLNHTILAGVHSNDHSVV
In words: Evaluation of EDG-2 antagonistic activity by monitoring the change of intracellular calcium ion concentration. The format is cell-based. Particulars: CHO cells overexpressing human EDG-2 gene; LPA final concentration 100 nM; intracellular calcium ion concentration (Fura2-AM). On the procedure: A series of the procedure is based on the basic gene manipuration technique, that is gene overexpressed cells are prepared and a conventional method was utilized. The usual method of measurement was improved for getting enhancement of measurement precision and/or measurement sensitivity of the evaluation of compounds in the present invention. A detailed method of the experiment was shown in the following clause.
Evaluation of EDG-2 antagonistic activity by monitoring the change of intracellular calcium ion concentration
Evaluation of EDG-2 antagonistic activity was carried out by using Chinese hamster ovary (CHO) cells which overexpressed human EDG-2 gene. Those cells were cultured with Ham's F12 medium (GIBCO BRL company No. 11765-047) containing 10% FBS (fetal bovine serum), penicillin/streptomycin and blasticidin (5 μg/ml). At first in order to uptake Fura2-AM (Dojindo company No. 348-05831) into the cells, cells were incubated for 60 minutes at 37 degrees in Fura2-AM (5 μM) solution [Ham's F12 medium containing 10% FBS, 20 mM HEPES buffer (pH 7.4) and 2.5 mM probenecid (Sigma company No. P-8761)]. Next, it was washed with Hanks solution containing HEPES buffer (20 mM, pH 7.4) and probenecid (2.5 mM) once, and immersed into the Hanks solution. Plates were set in fluorescent drug screening system (Hamamatsu photonics company, FDSS-2000) and intracellular calcium ion concentration was measured for 30 seconds with no stimulation and then solution of the compound of the present invention of formula (I) was added. Five minutes after adding thereto LPA (final concentration: 100 nM) was added, the increase of intracellular calcium ion concentrations before and after the addition of LPA (excitation wave length: […]; fluorescent wave length: […]) were measured every 3 seconds. The compound of the present invention represented by the formula (I) was dissolved in dimethyl sulfoxide (DMSO), and it was added so that the final concentration became 1 nM to 10 μM. 1-oleoyl (18:1)-LPA (Sigma) or 1-linolenoyl (18:3)-LPA was used as LPA. […]
(Calcium assays in cells follow changes in intracellular calcium, usually with a dye or a luminescent sensor.)
In the case of `COc1cc(OC)cc(C(=O)N(CCCc2ccccc2)Cc2ccc(Oc3ccccc3C(=O)O)cc2)c1` [3(33), 2-(4-(N-(3,5-dimethoxyphenylcarbonyl)-N-(3-phenylpropyl)aminomethyl)phenyloxy)benzoic acid], the IC50 was 95 nM.
Under `COc1cc(C(=O)C(CCCc2ccccc2)Cc2ccc(Oc3ccccc3C(=O)O)cc2)cc(OC)c1OC` (stereo not drawn) [8(1), 2-(4-(2-(3,4,5-trimethoxyphenylcarbonyl)-5-phenylpentyl)phenyloxy)benzoic acid] stands 110 nM.
Under `COc1cc(C(=O)N(CCCc2ccccc2)Cc2ccc(CC(=O)O)cc2)cc(OC)c1C` [Example 2(4), (4-(N-(3,5-dimethoxy-4-methylphenylcarbonyl)-N-(3-phenylpropyl)aminomethyl)phenyl)acetic acid] stands 150 nM.
